Patent publication US7396858B2, “Biguanide derivative and therapeutic agent for diabetes containing the same” (Chugai Seiyaku Kabushiki Kaisha, priority 2002, dated 2008)
Several values for one entry are separate records, joined by “and”; a condition that tells them apart may be missing. Equal entries are not always repeated.

Test system: female mice (C57BLKS/J-m +/+ Lepr<db> (db/db))
Assay: Oral glucose tolerance test (blood glucose and blood lactic acid levels)
Assay type: in vivo
Conditions: subcutaneous, AUC up to 2 hours vs solvent group; for Blood glucose reduction rate (%): 30 min before oral glucose 3 g/kg; for Blood lactic acid level increase rate (%): oral glucose tolerance test
Procedure: Measurement of blood glucose reduction rate and blood lactic acid levels by the aforementioned oral glucose tolerance test may be carried out by a publicly known method, and preferred methods are described below. Specifically, 11- to 17-week-old female mice (C57BLKS/J-m +/+ Lepr (db/db)) are starved for 18-24 hours. A group of five or six mice is used for the test. Blood is sampled from the tail for measurement of the blood glucose levels and blood lactic acid levels before treatment as controls. After sampling, the biguanide derivative is dissolved in phosphate-buffered physiological saline at a suitable concentration and subcutaneously administered at a dose of 5 ml/kg. As controls are prepared mice administered only the solvent. Glucose is then administered orally at a dose of 3 g/6 ml/kg at 30 minutes after administration of the compound or solvent as an oral glucose tolerance test. Blood is sampled from the tail for measurement of the blood glucose levels and the blood lactic acid levels 30 minutes, 1 hour and 2 hours after glucose administration. The blood glucose levels are measured using a New Blood Sugar Test (Roche Diagnostics) or a Glucose CII-Test Wako (Wako Pure Chemical Industries, Ltd.). The blood lactic acid levels are measured using an “Asuka Sigma” (Sigma Diagnostics).
The blood glucose reduction rate and the blood lactic acid level increase rate are calculated according to the following formulas. Blood glucose reduction rate (%)=[(AUC for blood glucose increase level of solvent-administered group−AUC for blood glucose increase level of compound-administered group)/AUC for blood glucose increase level of solvent-administered group]×100
The blood lactic acid level increase rate is calculated according to the following formula. Blood lactic acid level increase rate (%)=[(AUC for blood lactic acid level of compound-administered group−AUC for blood lactic acid level of solvent-administered group)/AUC for blood lactic acid level of solvent-administered group]×100
Eleven- to seventeen-week-old female mice (C57BLKS/J-m +/+ Lepr (db/db)) were starved for 18-24 hours, and a group of six mice was used for the test. Blood was sampled from the tail for measurement of the blood glucose levels and blood lactic acid levels before treatment. […] As a control, the solvent alone was subcutaneously administered to mice similarly.
Glucose was then administered orally at a dose of 3 g/6 ml/kg at 30 minutes after administration of the compound or solvent as an oral glucose tolerance test. Blood was sampled from the tail for measurement of the blood glucose levels and blood lactic acid levels 30 minutes, 1 hour and 2 hours after glucose administration. The blood glucose levels were measured using a New Blood Sugar Test (Roche Diagnostics) or a Glucose CII-Test Wako (Wako Pure Chemical Industries, Ltd.). The blood lactic acid levels were measured using an “Asuka Sigma” (Sigma Diagnostics).

| SMILES | Blood glucose reduction rate (%) (dosage 50 mg/kg) | Blood glucose reduction rate (%) (dosage 75 mg/kg) | Blood lactic acid level increase rate (%) (dosage 75 mg/kg) | Blood glucose reduction rate (%) (dosage 200 mg/kg) | Blood glucose reduction rate (%) (dosage 37.5 mg/kg) | Blood lactic acid level increase rate (%) (dosage 37.5 mg/kg) |
| --- | --- | --- | --- | --- | --- | --- |
| N=C(N)NC(=N)NCc1ccoc1 [1-[(Furan-3-yl)methyl]biguanide, 1-[(furan-3-yl)methyl]biguanide] | 40.3 | 65.5% | 9.7% | – | – | – |
| CN(C)C(=N)N=C(N)N [Metformin] | – | – | – | 56.0% and 41.8% | – | – |
| [H]/N=C(/N)N/C(=N/[H])NCCc1ccccc1 [Phenformin] | – | 64.5% and 78.0% and 60.8% and 61.4% and 72.8% and 69.6% | 93.6% and 151.6% and 94.7% and 120.8% and 141.1% and 114.8% | – | 39.5% and 72.7% | 46.4% and 83.1% |
